Test results: article PMC10703812, “Understanding the molecular mechanisms of odorant binding and activation of the human OR52 family” (Nature Communications, 2023)
Values joined by “and” are separate entries in the source; they are usually repeats but may differ in a detail not shown here. Identical values can stand only once.

Assays:
OR52cs = assay: cAMP signaling assay (cAMP sensor) in Hana3A cells; type: cell-based, human
Description: For cAMP assay, CRE luciferase assay, and surface ELISA, the full-length OR52cs construct was cloned into the pcDNA3.1 vector. The Lucy signal sequence and FLAG peptide sequence were added to the N-terminus. Mutant constructs were generated by site-directed mutagenesis. For BRET assay, eYFP was added at the C-terminus of OR52cs with a GGGGS linker. Rluc was added to Gα for resonance partner (after L99 for Gαs, and I100 for Gαolf, respectively, with GGGGS linker back and forth). […]
(§1) Hana3A cells were seeded on 96-well white microplates and transfected with OR52cs or the corresponding mutants and cAMP sensor (Promega). The medium was exchanged with CO2-independent medium (Gibco) supplemented with 0.375 mg ml^−1 D-luciferin (Nanolight) 48 h after infection, and cells were incubated in the dark at 20 °C for 2 h. Basal luminescence was detected using a Tristar 2 LB 942 multimode reader (Berthold) until it reached a plateau. Subsequently, various concentrations of odorants and forskolin (Sigma-Aldrich) were added to each well, and luminescence was measured again. Data were analyzed and plotted using GraphPad Prism 9.4.1.

OR52cs ΔN(1–18) = assay: cAMP signaling assay, N-tail deletion mutant; type: cell-based, human; settings: Fig. 2c
Description: (§2) For cAMP assay, CRE luciferase assay, and surface ELISA, the full-length OR52cs construct was cloned into the pcDNA3.1 vector. The Lucy signal sequence and FLAG peptide sequence were added to the N-terminus. Mutant constructs were generated by site-directed mutagenesis. For BRET assay, eYFP was added at the C-terminus of OR52cs with a GGGGS linker. Rluc was added to Gα for resonance partner (after L99 for Gαs, and I100 for Gαolf, respectively, with GGGGS linker back and forth).
as §1

[1] = tested on: OR52cs F14A / F96A / F170A; assay: cAMP signaling assay, mutant; type: cell-based, human
Description: as §2, §1

OR52cs G201V = assay: cAMP signaling assay, mutant; type: cell-based, human; settings: Fig. 3d
Description: as §2, §1

OR52cs H107A = assay: cAMP signaling assay, mutant; type: cell-based, human
Description: as §2, §1

OR52cs H183A = assay: cAMP signaling assay, mutant; type: cell-based, human; settings: for cAMP response: Fig.3d source data, single experiments
Description: as §2, §1

OR52cs R265A [2] = assay: cAMP signaling assay, mutant; type: cell-based, human
Description: as §2, §1

OR52cs V158F/V209M = assay: cAMP signaling assay, mutant; type: cell-based, human; settings: for cAMP response: Fig.S8b source data, single experiments
Description: as §2, §1

OR52cs V158F = assay: cAMP signaling assay, mutant; type: cell-based, human; settings: for cAMP response: Fig.S8b source data, single experiments
Description: as §2, §1

OR52cs Y282A = assay: cAMP signaling assay, mutant; type: cell-based, human; settings: odorant 0.001 M; Fig.S13b source data, single experiments
Description: as §2, §1

[3] = tested on: pcDNA (Null) Hana3A cells; assay: cAMP signaling assay, no receptor (Null / pcDNA); type: cell-based; parameters: cAMP response: unit not given here; settings: single experiments; for cAMP response: Fig.S11a source data
Description: as §1

OR52cs R265A [4] = assay: CRE luciferase assay in Hana3A cells, mutant; type: cell-based, human; settings: 100 µM carboxylic acid; Fig.S7a, single experiments
Description: as §2
48 h after infection, cells were treated with odorants and incubated at 37 °C for 4 h. […] All values were divided by the Renilla luciferase activity to normalize the effect of cell confluence. All data were analyzed using GraphPad Prism 9.4.1.

OR52cs / Gαolf = assay: BRET assay, G protein recruitment to OR52cs; type: cell-based, human; settings: 500 µM OCA; Gαolf-Rluc; Fig.S2a, single experiments; listed as OCA
Description: as §2
(§3) All signaling assays were performed in Hana3A cells, which were kindly provided by Dr. Matsunami. Cells were seeded on 6-well clear plate (SPL) and co-transfected with OR52cs-eYFP, Gαs-Rluc or Gαolf-Rluc, Gβ1 and Gγ2 at a 5:1:1:1 ratio. 48 h after infection, cells were collected and resuspended with PBS. 500 μM of OCA was treated to the cells, and cells were transferred to 96-well white microplate (SPL). Coelenterazine H (Nanolight) was added to each well at a final concentration of 10 μM and luminescence was measured using a Tristar 2 LB 942 multimode reader (Berthold). Data were analyzed using GraphPad Prism 9.4.1.

OR52cs / Gαs = assay: BRET assay, G protein recruitment to OR52cs; type: cell-based, human; settings: 500 µM OCA; Gαs-Rluc; Fig.S2a, single experiments; listed as OCA
Description: as §2, §3

Structure (SMILES): CCCCCCCC(=O)O [Octanoate, octanoic acid]
- EC50 (OR52cs; Supplementary Fig. 13b): 7 µM
- X-fold over OR52cs (relative fold of EC50) (OR52cs; Supplementary Table 3): 1
- EC50 (OR52cs; Supplementary Table 3, N=5): 7.9 µM
- pEC50 ± SEM (OR52cs; Supplementary Table 3, N=5): 5.230 ± 0.107
- cAMP response (OR52cs; odorant 9.18274e-8 M, Fig.S11a source data, single experiments): 5.085 and 3.831 and 4.775 and 5.026
- cAMP response (OR52cs; odorant 9.18274e-7 M, Fig.S11a source data, single experiments): 14.274 and 13.5525 and 12.3756 and 13.817
- cAMP response (OR52cs; odorant 9.18274e-6 M, Fig.S11a source data, single experiments): 55.4145 and 67.6331 and 64.1017 and 55.2862
- cAMP response (OR52cs; odorant 3.0303e-5 M, Fig.S11a source data, single experiments): 86.9919 and 78.2813 and 84.5166 and 65.845
- cAMP response (OR52cs; odorant 0.0001 M, Fig.1a source data, single experiments): 127.982 and 109.844 and 107.02 and 115.524 and 104.582
- cAMP response (OR52cs; odorant 0.0001 M, Fig.S11a source data, single experiments): 98.5501 and 101.54 and 117.496 and 98.6522
- cAMP response (raw signal) upon OCA treatment (OR52cs; odorant 0.001 M (1 mM OCA), Fig.S11a left, single experiments, listed as Octanotae): 146668 and 160587 and 152997 and 131980
- cAMP response (OR52cs; odorant 0.001 M, Fig.1a source data, single experiments): 103.349 and 98.3823 and 101.697 and 99.3544 and 97.2175
- cAMP response (OR52cs; odorant 0.001 M, Fig.S11a source data, single experiments): 95.2215 and 104.803 and 111.594 and 89.2504
- downstream signaling (in words) (OR52cs ΔN(1–18)): loss of downstream signaling
- cAMP response (in words) ([1]; Fig. 2c): significantly reduced cAMP response
- X-fold over OR52cs (relative fold of EC50) ([1]; Supplementary Table 3): 26.3
- EC50 ([1]; Supplementary Table 3, N=3): 208 µM
- downstream signaling (in words) (OR52cs G201V): loss of OCA signaling
- downstream signaling (in words) (OR52cs H107A; Fig. 3d): significantly reduced downstream signaling
- X-fold over OR52cs (relative fold of EC50) (OR52cs H107A; Supplementary Table 3): 23.7
- EC50 (OR52cs H107A; Supplementary Table 3, N=3): 187 µM
- cAMP response (OR52cs H107A; odorant 9.18274e-7 M, Fig.3d source data, single experiments): 2.018 and 1.83 and 1.279
- EC50 (OR52cs H183A; Supplementary Table 3, N=3): 41.4 µM
- pEC50 ± SEM (OR52cs H183A; Supplementary Table 3, N=3): 4.154 ± 0.087
- cAMP response (OR52cs H183A; odorant 0.0001 M): 48.2985 and 50.8568 and 78.4687
- cAMP response (OR52cs H183A; odorant 0.001 M): 61.0348 and 75.0061 and 91.5473
- downstream signaling (in words) (OR52cs R265A [2]; Fig. 3d): complete loss of downstream signaling
- cAMP response (OR52cs R265A [2]; odorant 9.18274e-6 M, Fig.3d source data, single experiments): 1.026 and 1.808
- response / preference (in words) (OR52cs V158F/V209M; Supplementary Fig. 8): preference for OCA was maintained
- cAMP response (OR52cs V158F/V209M; odorant 9.18274e-8 M): 1.119% and 0.2182% and 0.3359% and 1.739%
- cAMP response (OR52cs V158F/V209M; odorant 9.18274e-7 M): 6.95% and 4.269% and 3.744% and 7.839% and 6.948%
- cAMP response (OR52cs V158F/V209M; odorant 9.18274e-6 M): 37.3813% and 30.814% and 31.4615% and 45.1116% and 40.3488%
- cAMP response (OR52cs V158F/V209M; odorant 3.0303e-5 M): 96.8852% and 89.0601% and 97.4121% and 90.3953% and 94.2682%
- cAMP response (OR52cs V158F/V209M; odorant 0.0001 M): 87.6893% and 101.186% and 102.533% and 86.5504% and 88.6049%
- cAMP response (OR52cs V158F/V209M; odorant 0.001 M): 79.2271% and 94.3185% and 104.414% and 103.193% and 74.9407%
- downstream signal / selectivity (in words) (OR52cs V158F; Supplementary Fig. 8): greatly reduced the downstream signal
- cAMP response (OR52cs V158F; odorant 9.18274e-8 M): -0.2745% and -0.4519% and -0.2741%
- cAMP response (OR52cs V158F; odorant 9.18274e-7 M): -1.206% and -1.168% and -3.0916%
- cAMP response (OR52cs V158F; odorant 9.18274e-6 M): 1.8013% and 0.5178% and -1.853%
- cAMP response (OR52cs V158F; odorant 3.0303e-5 M): 11.8948% and 7.17% and 7.559%
- cAMP response (OR52cs V158F; odorant 0.0001 M): 32.9355% and 23.3075% and 28.8455%
- cAMP response (OR52cs V158F; odorant 0.001 M): 85.6572% and 61.8428% and 79.0275%
- cAMP response (OR52cs Y282A): 0.7944 and 0.7429 and 0.9514
- cAMP response ([3]; odorant 9.18274e-8 M): 2.6643 and 2.911 and 3.873 and 3.399
- cAMP response ([3]; odorant 9.18274e-7 M): 2.569 and 3.588 and 3.415 and 3.589
- cAMP response ([3]; odorant 9.18274e-6 M): 2.895 and 3.57 and 4.047 and 4.019
- cAMP response ([3]; odorant 3.0303e-5 M): 3.574 and 3.7923 and 3.945 and 4.033
- cAMP response ([3]; odorant 0.0001 M): 3.1425 and 4.269 and 3.81 and 3.981
- cAMP response (raw signal) upon OCA treatment ([3]; odorant 0.001 M (1 mM OCA), Fig.S11a left, listed as Octanotae): 10538 and 15823 and 16065 and 17585
- cAMP response ([3]; odorant 0.001 M): 4.161 and 5.018 and 6.3304 and 6.191
- relative fold (luciferase activity over DMSO) (OR52cs R265A [4]): 1.143 fold and 0.8826 fold and 1.532 fold and 1.19 fold
- ΔBRET (OCA- minus vehicle-treated BRET signal) (OR52cs / Gαolf): 0.01011 and 0.01399 and 0.007869 and 0.00957 and 0.01164
- ΔBRET (OCA- minus vehicle-treated BRET signal) (OR52cs / Gαs): 0.0184 and 0.01592 and 0.01247 and 0.01013 and 0.01218
